Experimental data reported in paper PMC5702617, “Novel peptide probes to assess the tensional state of fibronectin fibers in cancer” (Nature Communications, 2017).
Like-named read-outs stand apart in the source and are kept apart here.

Key:
[1] = In vitro plasma stability; assay type: in vitro ADME, human; settings: RP-HPLC, means from three experiments; for stability in human blood plasma: 37°C
Procedure: The stability of peptides in blood is often limited as they are rapidly cleaved by catalytic enzymes found in tissue and blood, resulting in a short biological half-life. […] To verify whether the FnBPA5 peptide can be used for in vivo applications, we next performed a plasma stability test. The metabolic stability of the peptide radiotracer ^111In-FnBPA5 was tested in vitro by incubating the radiolabeled FnBPA5 at 37°C with human blood plasma, or water as control. The unbound peptide fraction was separated from the plasma proteins at different time points (0, 1, 24, 48, and 72 h) and was analyzed by reversed-phase high-pressure liquid chromatography (RP-HPLC).
After that, the samples were filtrated using a Thomson Single StEP Filter vial 0.45 μm PVDF (Thomson Instrument Company, Oceanside, USA) and the supernatant was analyzed by reversed-phase HPLC (Varian Prostar HPLC System, SpectraLab Scientific Inc., Canada) using a D-Bio Discovery Wide Pore C18 column (25 cm × 4.6 mm; 5 μm).

PC-3-bearing mice [2] = test: In vivo blocking experiment in PC-3 tumor grafted mice; design: species or system mouse
Procedure: (§1) For the biodistribution experiments, PC-3 tumor grafted mice were injected into the tail vein with 150 kBq ^111In-FnBPA5 or ^111In-scrambled FnBPA5 (2.4 nmol, 100 µL PBS). For each peptide, groups of four mice were sacrificed at 1, 4, 24, and 96 h post injection. Blocking experiment (n = 4) was performed by injection of an excess of peptide (100 µg, 24 nmol in 100 µL PBS) directly before the administration of the corresponding radiolabeled peptide. The organs were collected, weighed and counted for activity with a γ counter (Packard Cobra II Auto, Gamma, PerkinElmer AG, Schwerzenbach, Switzerland) 4 h p.i. The results were expressed as a percentage of injected activity per gram of tissue (% IA per g tissue). The Student's t test analyses were considered as type 3 (two sample unequal variance) and statistical significance was assumed for p-values smaller than 0.05.

PC-3-bearing mice [3] = test: Biodistribution in PC-3 tumor grafted mice; assay type: in vivo, mouse; settings: PC-3 grafted mice, i.v. 150 kBq (2.4 nmol, 100 µL PBS), γ counter, mean ± SD, n = 4
Procedure: (§2) Experiments were performed 3–4 weeks after inoculation.
as §1

[4] = Biodistribution in PC-3 tumor grafted mice; assay type: in vivo, mouse; settings: female, CD1 nude, mouse, in vivo, iv, 150 kBq (2.4 nmol), total radioactivity, PC-3 grafted mice, i.v. 150 kBq (2.4 nmol), mean ± SD, n = 4; for tissue to tissue ratio at 1 h: 1 h p.i.; for tissue to tissue ratio at 4 h: 4 h p.i.; for tissue to tissue ratio at 24 h: 24 h p.i.; for tissue to tissue ratio at 96 h: 96 h p.i.
Procedure: as §2, §1

PC-3-bearing mice [5] = test: SPECT/CT imaging of PC-3-bearing mice; assay type: in vivo, mouse
Procedure: Thirty-three days from the inoculation of the tumor cells, the mice were intravenously injected with ~15 MBq ^111In-FnBPA5 resp. ^111In-scrambled FnBPA5-NODAGA (2.4 nmol, 100 µL PBS) into the tail vein. […] The images were reconstituted and processed with InVivoScope® software (Bioscan Inc., Washington DC, USA).

[6] = 10-fold excess of unlabeled FnBPA5 (24 nmol) pre-injected, 4 h p.i.
[7] = 4h p.i. blocking: corresponding unlabeled peptide (24 nmol) i.v. directly before the radiolabeled peptide, PC-3 grafted mice, mean ± SD, n = 4
[8] = read-out: Tumor-to-kidney ratio

## CC[C@H](C)[C@H](NC(=O)CNC(=O)[C@H](CCCCN)NC(=O)[C@@H](NC(=O)[C@H](CO)NC(=O)[C@H](CCC(=O)O)NC(=O)[C@H](CCC(=O)O)NC(=O)[C@H](CC(=O)O)NC(=O)[C@H](Cc1ccccc1)NC(=O)[C@H](CCC(=O)O)NC(=O)[C@@H](NC(=O)[C@H](CC(C)C)NC(=O)[C@H](CC(N)=O)NC(=O)[C@H](CO)NC(=O)[C@H](CCC(=O)O)NC(=O)[C@@H](NC(=O)[C@@H](NC(=O)[C@@H](NC(=O)[C@H](CCC(N)=O)NC(=O)CNC(=O)CNC(=O)CNC(=O)[C@@H](N)CSC1CC(=O)N(CCNC(=O)CCC(C(=O)O)N2CCN(CC(=O)O)CCN(CC(=O)O)CC2)C1=O)C(C)C)[C@@H](C)O)[C@@H](C)O)C(C)C)[C@@H](C)O)C(=O)N[C@H](C(=O)N[C@H](C(=O)NCC(=O)N[C@@H](C)C(=O)N[C@H](C(=O)N[C@@H](CO)C(=O)N[C@@H](CC(=O)O)C(=O)N[C@@H](Cc1c[nH]cn1)C(=O)N[C@H](C(=O)N[C@H](C(=O)N[C@H](C(=O)N[C@@H](CCC(=O)O)C(=O)N[C@@H](CC(=O)O)C(=O)N[C@H](C(=O)N[C@@H](CCCCN)C(=O)O)[C@@H](C)O)C(C)C)[C@@H](C)O)[C@@H](C)O)C(C)C)[C@@H](C)O)C(C)C (some centres unmarked) [111In-FnBPA5, metal not drawn]
[1]; 1 hour time point
  stability in human blood plasma: high stability
[1]; later time point
  stability in human blood plasma: very high stability
[1]; filtered fresh human blood plasma, 37 °C, 72 h, 12 MBq
  fraction intact in human blood plasma: 80%
[1]; filtered fresh human blood plasma, 37 °C, 72 h, 12 MBq, read-out: fraction intact in human blood plasma
  remaining at 72 h: ~80%
PC-3-bearing mice [2]; 24 nmol unlabeled peptide pre-injected, 4 h p.i., Student's t test, n = 4
  effect of pre-injection of unlabeled peptide on accumulation: significant reduction
PC-3-bearing mice [2]; [6]
  blocking effect on uptake, liver: −58.2%
  blocking effect on uptake, tumor tissue: −35.6%
PC-3-bearing mice [2]; [7]
  Biodistribution with blocking, Blood: 0.29 ± 0.074 IA% / g
  Biodistribution with blocking, Bone: 0.73 ± 0.31 IA% / g
  Biodistribution with blocking, Heart: 0.37 ± 0.080 IA% / g
  Biodistribution with blocking, Intestines: 0.53 ± 0.137 IA% / g
  Biodistribution with blocking, Kidneys: 175.80 ± 32.48 IA% / g
  Biodistribution with blocking, Liver: 1.61 ± 0.56 IA% / g
  Biodistribution with blocking, Lung: 0.95 ± 0.317 IA% / g
  Biodistribution with blocking, Muscle: 0.20 ± 0.12 IA% / g
  Biodistribution with blocking, Pancreas: 0.96 ± 0.384 IA% / g
  Biodistribution with blocking, Spleen: 1.33 ± 0.402 IA% / g
  Biodistribution with blocking, Stomach: 1.13 ± 0.14 IA% / g
  Biodistribution with blocking, Tumor: 2.91 ± 0.70 IA% / g
PC-3-bearing mice [3]; 1 h p.i.
  Biodistribution, Blood: 1.81 ± 0.62 IA% / g
  Biodistribution, Bone: 1.85 ± 0.21 IA% / g
  Biodistribution, Heart: 1.76 ± 0.51 IA% / g
  Biodistribution, Intestines: 2.27 ± 0.33 IA% / g
  Biodistribution, Kidneys: 140.58 ± 18.10 IA% / g
  Biodistribution, Liver: 7.52 ± 1.50 IA% / g
  Biodistribution, Lung: 2.88 ± 0.64 IA% / g
  Biodistribution, Muscle: 0.57 ± 0.07 IA% / g
  Biodistribution, Pancreas: 2.58 ± 1.27 IA% / g
  Biodistribution, Spleen: 7.01 ± 1.23 IA% / g
  Biodistribution, Stomach: 3.07 ± 0.39 IA% / g
PC-3-bearing mice [3]; 4 h p.i.
  Biodistribution, Blood: 0.48 ± 0.08 IA% / g
  Biodistribution, Bone: 1.32 ± 0.26 IA% / g
  Biodistribution, Heart: 0.91 ± 0.06 IA% / g
  Biodistribution, Intestines: 1.77 ± 0.12 IA% / g
  Biodistribution, Kidneys: 130.66 ± 10.32 IA% / g
  Biodistribution, Liver: 3.85 ± 0.16 IA% / g
  Biodistribution, Lung: 1.98 ± 0.12 IA% / g
  Biodistribution, Muscle: 0.50 ± 0.17 IA% / g
  Biodistribution, Pancreas: 2.31 ± 1.18 IA% / g
  Biodistribution, Spleen: 3.35 ± 0.33 IA% / g
  Biodistribution, Stomach: 2.46 ± 0.36 IA% / g
  Biodistribution, Tumor: 4.51 ± 0.15 IA% / g
PC-3-bearing mice [3]; 24 h p.i.
  Biodistribution, Blood: 0.15 ± 0.008 IA% / g
  Biodistribution, Bone: 0.86 ± 0.117 IA% / g
  Biodistribution, Heart: 0.31 ± 0.025 IA% / g
  Biodistribution, Intestines: 0.57 ± 0.039 IA% / g
  Biodistribution, Kidneys: 92.36 ± 14.25 IA% / g
  Biodistribution, Liver: 1.64 ± 0.26 IA% / g
  Biodistribution, Lung: 1.05 ± 0.11 IA% / g
  Biodistribution, Muscle: 0.24 ± 0.034 IA% / g
  Biodistribution, Pancreas: 0.78 ± 0.47 IA% / g
  Biodistribution, Spleen: 1.38 ± 0.068 IA% / g
  Biodistribution, Stomach: 0.51 ± 0.15 IA% / g
  Biodistribution, Tumor: 3.59 ± 0.53 IA% / g
PC-3-bearing mice [3]; 96 h p.i.
  Biodistribution, Blood: 0.06 ± 0.027 IA% / g
  Biodistribution, Bone: 0.50 ± 0.09 IA% / g
  Biodistribution, Heart: 0.14 ± 0.017 IA% / g
  Biodistribution, Intestines: 0.13 ± 0.02 IA% / g
  Biodistribution, Kidneys: 39.69 ± 4.79 IA% / g
  Biodistribution, Liver: 0.89 ± 0.12 IA% / g
  Biodistribution, Lung: 0.32 ± 0.038 IA% / g
  Biodistribution, Muscle: 0.095 ± 0.02 IA% / g
  Biodistribution, Pancreas: 0.18 ± 0.046 IA% / g
  Biodistribution, Spleen: 0.73 ± 0.417 IA% / g
  Biodistribution, Stomach: 0.31 ± 0.052 IA% / g
  Biodistribution, Tumor: 1.87 ± 0.773 IA% / g
[4]; read-out: Tumor-to-blood ratio
  tissue to tissue ratio at 1 h: 3.05 ± 1.65
  tissue to tissue ratio at 4 h: 9.68 ± 1.83
  tissue to tissue ratio at 24 h: 23.9 ± 2.52
  tissue to tissue ratio at 96 h: 34 ± 18.4
[4]; [8]
  tissue to tissue ratio at 1 h: 0.03
  tissue to tissue ratio at 4 h: 0.03
  tissue to tissue ratio at 24 h: 0.04
  tissue to tissue ratio at 96 h: 0.05 ± 0.02
[4]; read-out: Tumor-to-liver ratio
  tissue to tissue ratio at 1 h: 0.66 ± 0.22
  tissue to tissue ratio at 4 h: 1.18 ± 0.08
  tissue to tissue ratio at 24 h: 2.21 ± 0.25
  tissue to tissue ratio at 96 h: 2.11 ± 0.82
PC-3-bearing mice [5]; ~15 MBq (2.4 nmol, 100 µL PBS) i.v., up to 96 h p.i.
  SPECT/CT distribution: mainly accumulated in the kidneys
PC-3-bearing mice [5]; ~15 MBq i.v., 96 h p.i., post mortem, kidneys removed
  SPECT/CT distribution after kidney removal: predominant uptake in the tumor, liver, and spleen
